Test system: small intestine organoid
Assay: Mouse small intestine organoid culture
Assay type: cell-based
Conditions: day 9 of culture, 10 μM
Protocol: 7-Week-old male C57BL/6N mice were purchased from CHARLES RIVER LABORATORIES JAPAN, INC. After the acclimation period, the small intestine and colon were isolated under anesthesia. Crypts were collected from the excised small intestine and colon according to the protocol of IntestiCult (trade mark) Organoid Growth Medium. To be specific, the inside of the intestine was washed with 1 mL of cold PBS, then incised vertically, and washed 3 times with 1 mL of cold PBS. The intestine was transferred to a 10 cm petri dish filled with cold PBS, washed thoroughly again, and transferred to a 50 mL tube containing 15 mL of cold PBS while cutting into 2 mm pieces. […] The number of crypts contained in 10 μL of the suspension was counted under a microscope to determine the concentration, and the mixture was dispensed into a 15 mL tube at 800 crypts/tube, and centrifuged at 4° C., 200 g×5 min. […] Organoids were image-analyzed over time by Cell3iMager duos (SCREEN Holdings Co., Ltd.). For image analysis, the number of crypts having a diameter of 30-200 μm was counted as the number of seeded crypts on the first day of culture, and then those grown to 70 μm or more over time were counted as organoids, and the organoid formation rate from the crypts was calculated. At that time, the average diameter of the organoids measured at the same time was calculated. […]

`CC/C(=N\NC(=O)C(C)Nc1cncc(F)c1)c1ccc(O)c(C)c1O` (centres unmarked) [A-007] was tested, and the “formation rate (%)” value (DMSO 39) was 70% and the “average diameter (μm)” value (DMSO 202) was 257 μm.
